Patent US9938276B2, “6,5-bicyclic octahydropyrrolopyridine orexin receptor antagonists” (Merck Sharp & Dohme Corp., priority 2014, dated 2018)

Experiments:
human orexin-2 receptor = human orexin-2 receptor (Homo sapiens (Human), UniProt O43614); assay: hOX2R FLIPR Ca2+ flux assay; assay type: cell-based; conditions: CHO cells expressing the receptor; agonist 70 pM Ala-6,12 human orexin-A
Protocol: In a typical experiment the OX1 and OX2 receptor antagonistic activity of the compounds of the present invention was determined in accordance with the following experimental method. For intracellular calcium measurements, Chinese hamster ovary (CHO) cells expressing the rat orexin-1 receptor or the human orexin-2 receptor, are grown in Iscove's modified DMEM containing 2 mM L-glutamine, […], 1% hypoxanthine-thymidine supplement, 100 U/ml penicillin, 100 μg/ml streptomycin and 10% heat-inactivated fetal calf serum (FCS). The cells are seeded at 20,000 cells/well into Becton-Dickinson black 384-well clear bottom sterile plates coated with poly-D-lysine. All reagents were from GIBCO-Invitrogen Corp. The seeded plates are incubated overnight at 37° C. and 5% CO2. Ala-6,12 human orexin-A as the agonist is prepared as a 1 mM stock solution in 1% bovine serum albumin (BSA) and diluted in assay buffer (HBSS containing 20 mM HEPES, 0.1% BSA and 2.5 mM probenecid, pH7.4) for use in the assay at a final concentration of 70 pM. Test compounds are prepared as 10 mM stock solution in DMSO, then diluted in 384-well plates, first in DMSO, then assay buffer. On the day of the assay, cells are washed 3 times with 100 μl assay buffer and then incubated for 60 min (37° C., 5% CO2) in 60 μl assay buffer containing 1 μM Fluo-4AM ester, 0.02% pluronic acid, and 1% BSA. The dye loading solution is then aspirated and cells are washed 3 times with 100 μl assay buffer. 30 μl of that same buffer is left in each well. Within the Fluorescent Imaging Plate Reader (FLIPR, Molecular Devices), test compounds are added to the plate in a volume of 25 μl, incubated for 5 min and finally 25 μl of agonist is added. Fluorescence is measured for each well at 1 second intervals for 5 minutes and the height of each fluorescence peak is compared to the height of the fluorescence peak induced by 70 pM Ala-6,12 orexin-A with buffer in place of antagonist. […] Alternatively, compound potency can be assessed by a radioligand binding assay (described in Bergman et. al. Bioorg. Med. Chem. Lett. 2008, 18, 1425-1430) in which the inhibition constant (Ki) is determined in membranes prepared from CHO cells expressing either the OX1 or OX2 receptor. The intrinsic orexin receptor antagonist activity of a compound which may be used in the present invention may be determined by these assays.

hOX1R = hOX1R (Homo sapiens, UniProt O43613); assay: hOX1R FLIPR Ca2+ flux assay; assay type: cell-based; conditions: CHO cells expressing the receptor; agonist 70 pM Ala-6,12 human orexin-A

Sequence of human orexin-2 receptor (O43614 whole entry): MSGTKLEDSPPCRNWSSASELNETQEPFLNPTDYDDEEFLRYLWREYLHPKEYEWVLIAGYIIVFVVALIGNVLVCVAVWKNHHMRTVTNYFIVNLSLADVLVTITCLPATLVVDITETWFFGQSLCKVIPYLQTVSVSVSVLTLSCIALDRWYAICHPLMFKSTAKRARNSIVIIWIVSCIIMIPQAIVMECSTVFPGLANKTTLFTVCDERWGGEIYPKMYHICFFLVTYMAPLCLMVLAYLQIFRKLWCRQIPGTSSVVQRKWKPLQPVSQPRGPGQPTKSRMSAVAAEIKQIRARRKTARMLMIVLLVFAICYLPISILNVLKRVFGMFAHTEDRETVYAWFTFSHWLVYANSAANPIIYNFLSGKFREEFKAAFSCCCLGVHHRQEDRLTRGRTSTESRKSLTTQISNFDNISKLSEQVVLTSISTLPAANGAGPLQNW

| SMILES | IC50 (human orexin-2 receptor) [µM] | IC50 (hOX1R) [µM] |
| --- | --- | --- |
| N#Cc1ccnc(N2CC[C@@H]3CCN(C(=O)c4ccccc4-n4nccn4)C[C@@H]32)c1Cl [Example A19, 3-chloro-2-[(3aR, 7aR)-6-{[2-(2H-1,2,3-triazol-2-yl)phenyl]carbonyl}octahydro-1H-pyrrolo[2,3-c]pyridin-1-yl]pyridine-4-carbonitrile] | 0.0955 | ≥ 10 |
| O=C(c1ccccc1-n1nccn1)N1CC[C@H]2CCN(c3cc(C(F)(F)F)ccn3)[C@H]2C1 [Example A20, (3aR, 7aR)-6-{[2-(2H-1,2,3-triazol-2-yl)phenyl]carbonyl}-1-[4-(trifluoromethyl)pyridin-2-yl]octahydro-1H-pyrrolo[2,3-c]pyridine] | 0.0665 | 3.96 |
| Cc1ccnc(N2CC[C@@H]3CCN(C(=O)c4ccccc4-n4nccn4)C[C@@H]32)c1 [Example B1, (2-(2H-1,2,3-triazol-2-yl)phenyl)((3aR,7aR)-1-(4-methylpyridin-2-yl)hexahydro-1H-pyrrolo[2,3-c]pyridin-6(2H)-yl)methanone] | 0.902 | ≥ 10 |
| COc1ccnc(N2CC[C@@H]3CCN(C(=O)c4ccccc4-n4nccn4)C[C@@H]32)c1 [Example B3, (3aR, 7aR)-(2-(2H-1,2,3-triazol-2-yl)phenyl)(1-(4-methoxypyridin-2-yl)hexahydro-1H-pyrrolo[2,3-c]pyridin-6(2H)-yl)methanone] | 1.01 | ≥ 10 |
| CCOc1ccnc(N2CC[C@@H]3CCN(C(=O)c4ccccc4-n4nccn4)C[C@@H]32)c1 [Example B4, (3aR, 7aR)-(2-(2H-1,2,3-triazol-2-yl)phenyl)(1-(4-ethoxypyridin-2-yl)hexahydro-1H-pyrrolo[2,3-c]pyridin-6(2H)-yl)methanone] | 0.766 | ≥ 10 |
| N#Cc1cc(N2CC[C@@H]3CCN(C(=O)c4ccccc4-n4nccn4)C[C@@H]32)ncc1F [Example B5, 5-fluoro-2-[(3aR, 7aR)-6-{[2-(2H-1,2,3-triazol-2-yl)phenyl]carbonyl}octahydro-1H-pyrrolo[2,3-c]pyridin-1-yl]pyridine-4-carbonitrile] | 4.72 | ≥ 10 |
| N#Cc1cccc(N2CC[C@@H]3CCN(C(=O)c4ccccc4-n4nccn4)C[C@@H]32)c1 [Example B6, 3-((3aR, 7aR)-6-(2-(2H-1,2,3-triazol-2-yl)benzoyl)octahydro-1H-pyrrolo[2,3-c]pyridin-1-yl)benzonitrile] | 1.73 | ≥ 10 |
| O=C(c1ccccc1-n1nccn1)N1CC[C@H]2CCN(c3ncnc4[nH]ccc34)[C@H]2C1 [Example B7, (3aR, 7aR)-(2-(2H-1,2,3-triazol-2-yl)phenyl)(1-(7H-pyrrolo[2,3-d]pyrimidin-4-yl)hexahydro-1H-pyrrolo[2,3-c]pyridin-6(2H)-yl)methanone] | 10 | 10 |
| O=C(c1ccccc1-n1nccn1)N1CC[C@H]2CCN(c3nccc4ncccc34)[C@H]2C1 [Example B8, 5-[(3aR, 7aR)-6-{[2-(2H-1,2,3-triazol-2-yl)phenyl]carbonyl}octahydro-1H-pyrrolo[2,3-c]pyridin-1-yl]-1,6-naphthyridine] | 2.52 | 10 |
| O=C(c1ccccc1-n1nccn1)N1CC[C@H]2CCN(c3nccc4ccccc34)[C@H]2C1 [Example B9, (2-(2H-1,2,3-triazol-2-yl)phenyl)((3aR, 7aR)-1-(isoquinolin-1-yl)hexahydro-1H-pyrrolo[2,3-c]pyridin-6(2H)-yl)methanone] | 0.0408 | 1.66 |
| O=C(c1ccccc1-n1nccn1)N1CC[C@H]2CCN(c3ccnc4ccccc34)[C@H]2C1 [Example B10, (2-(2H-1,2,3-triazol-2-yl)phenyl)((3aR, 7aR)-1-(quinolin-4-yl)hexahydro-1H-pyrrolo[2,3-c]pyridin-6(2H)-yl)methanone] | 3.43 | 10 |
| COC(=O)c1csc(N2CC[C@@H]3CCN(C(=O)c4ccccc4-n4nccn4)C[C@@H]32)n1 [Example B11, methyl 2-((3aS, 7aR)-6-(2-(2H-1,2,3-triazol-2-yl)benzoyl)octahydro-1H-pyrrolo[2,3-c]pyridin-1-yl)thiazole-4-carboxylate] | 10 | 10 |
| O=C(c1ccccc1-n1nccn1)N1CC[C@H]2CCN(c3nccn4nccc34)[C@H]2C1 [Example B13, (3aR, 7aR)-6-(2-(2H-1,2,3-triazol-2-yl)benzoyl)-1-(pyrazolo[1,5-a]pyrazin-4-yl)ocathydro-1H-pyrrolo[2,3-c]pyridin-1-ium] | 2.02 | 10 |
| O=C(c1ccccc1-n1nccn1)N1CC[C@H]2CCN(c3nccn4ccnc34)[C@H]2C1 [Example B14, (2-(2H-1,2,3-triazol-2-yl)phenyl)((3aR, 7aR)-1-(imidazo[1,2-a]pyrazin-8-yl)hexahydro-1H-pyrrolo[2,3-c]pyridin-6(2H)-yl)methanone] | 1.07 | ≥ 10 |
| O=C(c1ccccc1-n1nccn1)N1CC[C@H]2CCN(c3ncnc4sccc34)[C@H]2C1 [Example B15, (2-(2H-1,2,3-triazol-2-yl)phenyl)((3aR, 7aR)-1-(thieno[2,3-d]pyrimidin-4-yl)hexahydro-1H-pyrrolo[2,3-c]pyridin-6(2H)-yl)methanone] | ≥ 10 | ≥ 10 |
| O=C(c1ccccc1-n1nccn1)N1CC[C@H]2CCN(c3nccc4cccnc34)[C@H]2C1 [Example B16, ((3aR, 7aR)-1-(1,7-naphthyridin-8-yl)hexahydro-1H-pyrrolo[2,3-c]pyridin-6(2H)-yl)(2-(2H-1,2,3-triazol-2-yl)phenyl)methanone] | 0.75 | ≥ 10 |
| O=C(c1ccccc1-n1nccn1)N1CC[C@H]2CCN(c3ccc4ccccc4n3)[C@H]2C1 [Example B18, 2-[(3aR, 7aR)-6-{[2-(2H-1,2,3-triazol-2-yl)phenyl]carbonyl}octahydro-1H-pyrrolo[2,3-c]pyridin-1-yl]quinoline] | 1.53 | 1.04 |
| O=C1OCc2c1ccnc2N1CC[C@@H]2CCN(C(=O)c3ccccc3-n3nccn3)C[C@@H]21 [Example B19, 4-[(3aR, 7aR)-6-{[2-(2H-1,2,3-triazol-2-yl)phenyl]carbonyl}octahydro-1H-pyrrolo[2,3-c]pyridin-1-yl]furo[3,4-c]pyridin-1(3H)-one] | 1.01 | 10 |
| Cc1cncc(N2CC[C@@H]3CCN(C(=O)c4ccccc4-n4nccn4)C[C@@H]32)n1 [Example B20, (3aR, 7aR)-1-(6-methylpyrazin-2-yl)-6-{[2-(2H-1,2,3-triazol-2-yl)phenyl]carbonyl}octahydro-1H-pyrrolo[2,3-c]pyridine] | 2.08 | ≥ 10 |
| Cc1ncc(N2CC[C@@H]3CCN(C(=O)c4ccccc4-n4nccn4)C[C@@H]32)nc1C [Example B21, (3aR, 7aR)-1-(5,6-dimethylpyrazin-2-yl)-6-{[2-(2H-1,2,3-triazol-2-yl)phenyl]carbonyl}octahydro-1H-pyrrolo[2,3-c]pyridine] | 0.948 | 10 |
| Cc1cnc(C)c(N2CC[C@@H]3CCN(C(=O)c4ccccc4-n4nccn4)C[C@@H]32)n1 [Example B22, (3aR, 7aR)-1-(3,6-dimethylpyrazin-2-yl)-6-{[2-(2H-1,2,3-triazol-2-yl)phenyl]carbonyl}octahydro-1H-pyrrolo[2,3-c]pyridine] | 5.91 | ≥ 10 |
| O=C(c1ccccc1-n1nccn1)N1CC[C@H]2CCN(c3cncc4ccccc34)[C@H]2C1 [Example B23, 4-[(3aR, 7aR)-6-{[2-(2H-1,2,3-triazol-2-yl)phenyl]carbonyl}octahydro-1H-pyrrolo[2,3-c]pyridin-1-yl]isoquinoline] | 7.07 | 10 |
| CC(C)(O)c1csc(N2CC[C@H]3CCN(C(=O)c4ccccc4-n4nccn4)C[C@@H]32)n1 [Example C1] | 0.202 | 10 |
| CC(C)(O)c1coc(N2CC[C@@H]3CCN(C(=O)c4ccccc4-n4nccn4)C[C@@H]32)n1 [Example C2] | 0.342 | 10 |
| CC(O)(c1cncc(N2CC[C@@H]3CCN(C(=O)c4ccccc4-n4nccn4)C[C@@H]32)n1)C(F)(F)F (stereo partly drawn) [Example C3, 1,1,1-trifluoro-2-{6-[(3aR, 7aR)-6-{[2-(2H-1,2,3-triazol-2-yl)phenyl]carbonyl}octahydro-1H-pyrrolo[2,3-c]pyridin-1-yl]pyrazin-2-yl}propan-2-ol] | 3.34 | ≥ 10 |
